Assay results reported in patent US20030005484A1, “Microbiocidal and pesticidal aromatic aldehydes” (ProGuard, Inc., priority 1994, published 2003).
“And” between values parts separate entries of the source, which are not always exact repeats. Equal values may be shown once.

Key:
[1] = test system: silverleaf white fly, Bemisia argentifolii; assay: silver leaf white fly Petri dish bioassay
Description: Activity of cinnamic aldehyde and/or coniferyl aldehyde against black bean aphid, Tetranychus urticae, and silverleaf white fly, Bemisia argentifolii was determined as follows:
Petri dishes (60 mm) were treated with cinnamic aldehyde at 10-25,000 ppm in 2% Tween 80 and 6% NaHCO3 dissolved in water, and allowed to air dry. Twenty adult silver leaf white fly were put in each dish, (replicate 10 times). The mortality after three hours in contact with a treated plate, was compared to that of silver leaf white fly in petri dishes treated only with diluent. Malathion at 250 ppm was used as a positive control.

[2] = test system: Fusarium subglutinans f. sp. pini; assay: radial growth on amended potato dextrose agar; type: cell-based; details: five days at 18° C
Description: A double-blind bioassay was undertaken using cinnamic aldehyde in various concentrations and formulations. The bioassay was based on inhibition of radial growth of Fusarium subglutinans f. sp. pini. Eight ml of formulation (concentration unknown) was pipetted into 200 ml of molten 2% potato dextrose agar (PDA) and the mixture was dispersed into five plastic petri dishes (25 ml dish). Each of four plates was inoculated at the center with an agar plug transferred from a growing PDA culture of Fusarium subglutinans f. sp. pini (isolate SL-1, UCB), while the fifth plate was left noninoculated as a control. These steps were repeated for each formulation of the cinnamic aldehyde. As a positive control, four PDA plates amended with 5 ppm benomyl were inoculated. as described; the negative control was four unamended PDA plates that were inoculated with F. subglutinans. All inoculated and non-inoculated plates were incubated at 18° C. for five days, after which colony diameters were measured.

powdery mildew = powdery mildew on Cabernet Sauvignon grapes; type: in vivo; details: for % CLUSTERS INFECTED-FIRST DAY / MEAN # OF BERRIES/CLUSTER INFECTED FIRST DAY: 2 days post treatment; for % CLUSTERS INFECTED-SECOND DAY / MEAN # OF BERRIES/CLUSTER INFECTED SECOND DAY: 10 days post-treatment
Description: The effect of 0.3% and 0.6% cinnamic aldehyde on powdery mildew on grapes was examined. A 3 acre block of Cabernet Sauvignon that was severely infested with powdery mildew (primarily on grape berries) was sprayed with either 0.3% or 0.6% cinnamic aldehyde using a 300 gal. Pul-Blast sprayer at 160 psi fitted with 10, D4 nozels using a #56 core. Approximately 1.25 acres were treated for each cinnamic aldehyde concentration. A 0.5 acre plot of control grape vines were sprayed with a tank mix at label rates of other commercially available pesticides (Abound, Provado, Kelthan, Silwet L-77 and a foliar nutrient spray( 10-12-0+2% zinc)) costing approximately $87.00/acre. For the two cinnamic aldehyde treatments and control plots, 2 rows per treatment were visually inspected for severe powdery mildew infections and marked with flagging tape. At least 10 locations were marked in each row inspected and defined sampling positions for determining efficacy of the treatments. Water sensitive cards were placed at the level of the cordon wire (where grape clusters are located) and were used to monitor spray coverage. Two and ten days subsequent to treatment, samples from two sides of each vine (to include variable powdery mildew incidence due to sun exposure) were examined for powdery mildew. […] 0.3% cinnamic aldehyde reduced powdery mildew infection of grapes to a level similar to the positive control while 0.6% cinnamic aldehyde reduced powdery mildew infection even more than the standard. Upon examination of the mean number of berries infected with powdery mildew, again, it was evident that both 0.3% and 0.6% cinnamic aldehyde reduced the extent of powdery mildew infection to levels that were to similar or less than the positive control respectively.

phylloxera-biotype A = assay: greenhouse Merlot vines infested with phylloxera, leaf spray, disease rating of roots; type: in vivo, Daktulosphaira vitifoliae
From the text: For greenhouse tests, one year old potted V. vinifera cultivar merlot plants were used that had been obtained from Foundation Plant Material Service, University of California, Davis. The plants were potted in 10 cm diameter pots and were infested with phylloxera 5 weeks prior to treatment. At the time of spraying with a treatment solution, plant pots were placed in a plastic bag so that chemical runoff from the leaf sprays would not drip into the soil. The plants were sprayed to runoff with a household 1 liter-capacity plastic spray bottle. Plants were allowed to air dry outside and then replaced in the greenhouse. At intervals thereafter, the roots were separated from the potting mix and total phylloxera population estimated.

grape phylloxera = assay: reinoculation bioassay of roots excised from leaf-treated vines; type: in vivo, Daktulosphaira vitifoliae; details: for phylloxera counted: 1st instar / phylloxera counted: 2nd instar / phylloxera counted: 3rd instar / phylloxera counted: 4th instar / phylloxera counted: Adults / phylloxera counted: Eggs: roots taken 5 weeks after treatment, 25 day bioassay
From the text: […] For this bioassay, root sections were inoculated with 20 eggs and the roots maintained as the original colonies were maintained (see description above). After 25 days, the number of individual phylloxera of each age class were counted.

## O=C/C=C/c1ccccc1 [cinnamic aldehyde]
[1]; 2500 ppm and above in 2% Tween 80 and 6% NaHCO3, three hours contact with treated dish
  silver leaf white fly killed: 100%
[1]; Bemisia argentifolii, 3 h
  mortality at 10 ppm: 25%
  mortality at 100 ppm: 50%
[1]; Cinnamic Aldehyde (20 g) with NaHCO3
  Silver Leaf White Fly Mortality (Percent): 87.3%
[1]; Cinnamic Aldehyde (20 g) with T80(2%) + NaHCO3 (6%)
  Silver Leaf White Fly Mortality (Percent): 100%
[1]; Cinnamic Aldehyde (20 g) with T80 (10 g)
  Silver Leaf White Fly Mortality (Percent): 72.1%
[1]; Cinnamic Aldehyde (20 g), no additive
  Silver Leaf White Fly Mortality (Percent): 68.6%
[2]; 10 ppm CNMA (with saponin: 0.86 ml Yucca extract 10° BRIX)
  Colony diameter (cm): 4.36 cm
[2]; 10 ppm CNMA (with saponin: 0.86 ml Yucca extract 10° BRIX), listed as CNMA
  Colony diameter (cm): 4.363 cm
[2]; 100 ppm CNMA (with saponin: 0.86 ml)
  Colony diameter (cm): 4.238 cm
[2]; 100 ppm CNMA (with saponin: 0.86 ml), listed as PGXL CNMA
  Colony diameter (cm): 4.24 cm
[2]; 2,500 ppm CNMA (with saponin: 0.86 ml)
  Colony diameter (cm): 3.513 cm
[2]; 2,500 ppm CNMA (with saponin: 0.86 ml), listed as PGXL CNMA
  Colony diameter (cm): 3.51 cm
[2]; 5,000 ppm CNMA (with saponin: 0.86 ml)
  Colony diameter (cm): 2.908 cm
[2]; 5,000 ppm CNMA (with saponin: 0.86 ml), listed as PGXL CNMA
  Colony diameter (cm): 2.91 cm
[2]; 12,500 ppm CNMA (with saponin: 0.86 ml)
  Colony diameter (cm): 0.000 cm
[2]; 12,500 ppm CNMA (with saponin: 0.86 ml), listed as PGXL CNMA
  Colony diameter (cm): 0 cm
[2]; 25,000 ppm CNMA (with saponin: 0.86 ml)
  Colony diameter (cm): 0.000 cm
[2]; 25,000 ppm CNMA (with saponin: 0.86 ml), listed as PGXL CNMA
  Colony diameter (cm): 0 cm
Powdery mildew; 0.3% CNMA
  % CLUSTERS INFECTED-FIRST DAY: 60%
  MEAN # OF BERRIES/CLUSTER INFECTED FIRST DAY: 3.1
  % CLUSTERS INFECTED-SECOND DAY: 0.22%
  MEAN # OF BERRIES/CLUSTER INFECTED SECOND DAY: 0.72
Powdery mildew; 0.6% CNMA
  % CLUSTERS INFECTED-FIRST DAY: 25%
  MEAN # OF BERRIES/CLUSTER INFECTED FIRST DAY: 0.5
  % CLUSTERS INFECTED-SECOND DAY: 0.2%
  MEAN # OF BERRIES/CLUSTER INFECTED SECOND DAY: 0.25
Powdery mildew; both treatments, 0.3% and 0.6%
  time control of powdery mildew was maintained: at least three weeks
phylloxera-biotype A; CNMA 10,000 ppm in 6% NaHCO3 and 2% Tween-80, leaves to run-off, week 1 (7 day evaluation)
  Average disease rating (0-4): 0^2(3)^3 and 0
phylloxera-biotype A; Experiment 2, 2500 ppm CNMA leaf treatment, 1 day post treatment
  Average disease rating (0-4): 4 (3)
phylloxera-biotype A; Experiment 2, 2500 ppm CNMA leaf treatment, 2 days post treatment
  Average disease rating (0-4): 0.3(3)
phylloxera-biotype A; Experiment 2, 2500 ppm CNMA leaf treatment, 7 days post treatment
  Average disease rating (0-4): 0.3(3)
phylloxera-biotype A; one-year-old greenhouse Merlot vines sprayed to run-off, after two weeks
  insects on roots after leaf spray: disappeared
Grape phylloxera; 300 ppm leaf treatment
  phylloxera counted: 1st instar: 0
  phylloxera counted: 2nd instar: 6
  phylloxera counted: 3rd instar: 5
  phylloxera counted: 4th instar: 0
  phylloxera counted: Adults: 4
  phylloxera counted: Eggs: 16
Grape phylloxera; 1000 ppm leaf treatment
  phylloxera counted: 1st instar: 0
  phylloxera counted: 2nd instar: 1
  phylloxera counted: 3rd instar: 4
  phylloxera counted: 4th instar: 2
  phylloxera counted: Adults: 1
  phylloxera counted: Eggs: 2
Grape phylloxera; 3000 ppm leaf treatment
  phylloxera counted: 1st instar: 0
  phylloxera counted: 2nd instar: 2
  phylloxera counted: 3rd instar: 1
  phylloxera counted: 4th instar: 1
  phylloxera counted: Adults: 0
  phylloxera counted: Eggs: 0
Grape phylloxera; 10,000 ppm leaf treatment
  phylloxera counted: 1st instar: 0
  phylloxera counted: 2nd instar: 2
  phylloxera counted: 3rd instar: 0
  phylloxera counted: 4th instar: 0
  phylloxera counted: Adults: 0
  phylloxera counted: Eggs: 0
Grape phylloxera; roots taken 1, 2 and 5 weeks after treatment, infested with untreated eggs
  establishment of new phylloxera populations on roots from treated plants: not from the CNMA-treated plants
